These results are taken from patent EP2902035B1, “Cell-permeable peptide inhibitors of the JNK signal transduction pathway for use in the treatment of inflammatory eye diseases” (Xigen Inflammation Ltd., priority 2010, dated 2012).

In data set [1] the test system is Endotoxin-Induced Uveitis (EIU). Kind of data set: Scoring of Endotoxin-Induced Uveitis (EIU) by slit lamp. Type of data set: in vivo, Lewis rats. The settings on record: scored at 24 hours on a scale from 0 to 5, mean ± SEM. The method, then:
For intravenous (IV) injection, 100 µL of saline (NaCl 0.9%) or the JNK-inhibitor (poly-)peptide of SEQ ID NO: 11 (20 µg/kg in saline) were injected in a tail vein using a 25G-needle connected on a 1 mL syringe (Becton Dickinson, France). For intravitreous (IVT) injection, 5 µL of saline or the JNK-inhibitor (poly-)peptide of SEQ ID NO: 11 (0.2 µg/injection in saline) were injected in both eyes using a 30G disposable needle (BD-microfine syringe, nm Médical, Asnière, France). The IV dose of 20 µg/kg (i.e. 3.5 µg/rat in rats weighing 175g) was chosen according to studies showing that the JNK-inhibitor (poly-)peptide of SEQ ID NO: 11 is active at very low doses in other models. For intravitreous injections, the inventors used the minimal dose used in direct ear application after acute noise trauma in patients. This corresponds to 5% of the dose injected intravenously. […]
In a first set of experiment, 70 rats were randomized into 14 experimental groups with 5 rats per group. […] Clinical ocular inflammation was recorded only at 24 hours (see Scoring of Endotoxin-Induced Uveitis (EIU) section). […]
Animals were examined by slit lamp at 24 hours, the clinical peak of the disease in our experiments. The intensity of clinical ocular inflammation was scored on a scale from 0 to 5 for each eye as described previously 10: grade (0) indicates no inflammation; grade (1) indicates the presence of a minimal iris and conjunctival vasodilation but without the observation of flare or cells in the anterior chamber (AC); grade (2) indicates the presence of moderate iris and conjunctival vessel dilation but without evident flare or cells in the AC; grade (3) indicates the presence of intense iris vessels dilation, flare and less than 10 cells per slit lamp field in the AC; grade (4) indicates the presence of more severe clinical signs than grade 3, with more than 10 cells in the AC with or without the formation of a hypopion; grade (5) indicates the presence of intense inflammatory reaction, fibrin formation in the AC and total seclusion of the pupil. […]

For another data set, the system named is healthy eyes. Also noted: species or system Lewis rats. The settings on record: rat, in vivo. The protocol:
For immunohistochemistry, eyeballs were collected and fixed for 1h at room temperature in phosphate buffered saline (PBS) containing 4% paraformaldehyde before being rinsed overnight in PBS. The next day, samples were embedded and frozen in optimal cutting-temperature (OCT) compound (Tissue-Tek®, Sakura Finetek, Zoeterwoude, Netherland) and stored at -80°C. Frozen antero-posterior sections of eyes (10 µm thick) were performed at the optic nerve level using a cryostat (Leica CM 3050S, Rueil-Malmaison, France) and mounted on super-frost slides for immunohistochemical analysis.
A second set of experiment was designed to evaluate the anti-inflammatory effect of the JNK-inhibitor (poly-)peptide of SEQ ID NO: 11 at the cellular and tissue level as well as the biodistribution of this molecule 24 hours after administration. Rats were randomized into 11 experimental groups. 6 groups of rats with uveitis: untreated uveitic rats, rats injected intravenously with NaCl or the JNK-inhibitor (poly-)peptide of SEQ ID NO: 11 and rats injected intravitreously with the vehicle, the JNK-inhibitor (poly-)peptide of SEQ ID NO: 11 or dexamethasone. The 5 additional groups without uveitis were: untreated healthy rats, rats treated by NaCl IV or the JNK-inhibitor (poly-)peptide of SEQ ID NO: 11 IV and rats injected IVT with NaCl or the JNK-inhibitor (poly-)peptide of SEQ ID NO: 11. […]

Data set [2] deals with intraocular LPS-induced Chemokine/Cytokine profiles. Briefly: Chemokine/Cytokine Multiplex Assay on ocular fluids in EIU. Type of data set: in vivo, Lewis rats. The protocol:
Aqueous humor and vitreous were collected and pooled from each enucleated eye. Ocular fluids were immediately centrifuged and the cell-free fractions were collected and frozen at -20°C before analysis by Multiplex assay. Blood samples were first clotted at room temperature for 2 hours and then at 4°C overnight. Serum was collected, centrifuged and the clear supernatant was collected and frozen at -20°C before Multiplex analysis.
In a first set of experiment, 70 rats were randomized into 14 experimental groups with 5 rats per group. Uveitis was induced in each group and rats were killed 6 hours (4 groups), 24 hours (6 groups) and 48 hours (4 groups) after LPS challenge. For each time point tested (i.e. 6h, 24h and 48h), rats treated by intravenous or intravitreous injections of vehicle (NaCl 0.9%) or the JNK-inhibitor (poly-)peptide of SEQ ID NO: 11 were compared to untreated control uveitic rats. Two additional groups, treated by intravenous injection of vehicle and intravitreal injection of dexamethasone were used at 24 hours. Clinical ocular inflammation was recorded only at 24 hours (see Scoring of Endotoxin-Induced Uveitis (EIU) section). At each time point, intraocular fluids from each eye (n=10 per group) and serum from each animal (n=5 per group) were used for Chemokine/Cytokine Multiplex Assay.
Intraocular fluids (diluted to obtain a final volume of 25 µL) and sera (25 µL of 1:5 dilution) were subjected to multiplex bead analysis. This method uses microspheres as the solid support for immunoassays 12 and allows the titration of a greater number of cytokines with increased sensitivity than occurs with ELISA.13 For each sample, seventeen analytes were quantified simultaneously using the rat Cytokine/Chemokine-17plex kit (Milliplex Map Kit, Millipore, Saint-Quentin-en-Yvelines, France) according to the manufacturer's instructions: Chemokines MCP-1/CCL2, MIP-1α/CCL3, RANTES/CCL5, IP-10/CXCL10 (IFN-inducible protein-10) and GRO/KC; proinflammatory mediators IL-1, IL-18 and TNF-; Th1/Th2/Th17 cytokines IL-2 and IFN- / IL-4, IL-5, IL-6, IL-10 and IL-13 / IL-17. The assay was performed in a 96-well filter plate and standard curves for each cytokine were generated with a Rat Cytokine Standard provided in the kit. All incubation steps were performed under medium orbital agitation and in the dark to protect the beads from light. Data acquisition and analysis were performed with the manager software version 4.1 (Bioplex; Bio-Rad) with four or five logistic parameters for standard curves. Detection thresholds for all the analytes were estimated around 1 to 10 pg/mL.

The mark [3] stands for this setting: ocular fluids, IV at the time of LPS challenge, at 6 and 24 hours.
[4] abbreviates: ocular fluids, IV, at different time points.
Setting [5] is: ocular fluids, IVT, at 24 hours.
Setting [6] is: treated versus untreated eyes, any of the tested time points.

SMILES strings stand for the structures.

`CC(C)C[C@@H](NC(=O)[C@@H](Cc1ccccc1)NC(=O)[C@H]1CCCN1C(=O)[C@@H](CCC(N)=O)NC(=O)[C@H](NC(=O)[C@H]1CCCN1C(=O)[C@@H](CCCNC(=N)N)NC(=O)[C@@H](CO)NC(=O)[C@@H](CCC(N)=O)NC(=O)[C@H](N)CC(=O)O)C(C)C)C(=O)N[C@H](CC(N)=O)C(=O)N[C@H](CC(C)C)C(=O)N[C@@H](C(=O)N[C@@H](C(=O)N1CCC[C@@H]1C(=O)N[C@H](CCCNC(=N)N)C(=O)N[C@H](CCCCN)C(=O)N1CCC[C@@H]1C(=O)N[C@H](CCCNC(=N)N)C(=O)N1CCC[C@@H]1C(=O)N1CCC[C@@H]1C(=O)N[C@H](CCCNC(=N)N)C(=O)N[C@H](CCCNC(=N)N)C(=O)N[C@H](CCCNC(=N)N)C(=O)N[C@H](CCC(N)=O)C(=O)N[C@H](CCCNC(=N)N)C(=O)N[C@H](CCCNC(=N)N)C(=O)N[C@H](CCCCN)C(=O)N[C@H](CCCCN)C(=O)N[C@H](CCCNC(=N)N)C(=O)NCC(=O)O)[C@H](C)O)[C@H](C)O` [SEQ ID NO: 11] yielded an EIU clinical scores in data set [1] (20 µg/kg intravenous (IV) injection at LPS challenge) of 2.0 ± 0.1 A.U. The EIU clinical scores in data set [1] (intravitreous (IVT) administration at LPS challenge (SEQ ID NO: 11: 0.2 µg/injection)) is on record as 2.2 ± 0.2 A.U. Besides, the “inflammatory cell infiltration in healthy eyes” value in the data set on healthy eyes is “No inflammatory cell infiltration”. For the same compound, in data set [2] (setting [3]), the MCP-1 entry is reported as “significant reduction”, the MIP-1α entry was “significant reduction” and the RANTES entry is reported as “significant reduction”. Besides, the GRO/KC entry in data set [2] (ocular fluids, IV, at 6 hours) is “significantly reduced”. Besides, the IL-10 entry in data set [2] (ocular fluids, IV, at 6 hours, not significantly) is “tended to increase”. Further, in data set [2] (setting [4]), the IL-6 result was “significantly reduced”, the INF-γ entry is “significantly reduced” and the TNF-α entry is given as “significantly reduced”. Moreover, in data set [2] (ocular fluids, IVT, at 6 hours), the IL-2 result was “trend to a decrease”, the IL-6 entry is on record as “trend to a decrease”, the MCP-1 entry is listed as “trend to a decrease” and the TNF-α entry is on record as “trend to a decrease”. In addition, in data set [2] (setting [5]), the IL-2 entry was “marked decrease” and the IL-13 result was “increase”. For the same compound, in data set [2] (ocular fluids, injected into the vitreous at the time of LPS challenge, versus vehicle), the chemokine/ cytokine profiles result is “not strikingly different”. Moreover, in data set [2] (setting [6]), the IL-1β entry is listed as “did not differ”, the IL-4 result is listed as “did not differ” and the IL-18 entry is “did not differ”.
